Laboratory results: the Kinase Knowledgebase extract (Sharma et al. 2016)

Biological target: PIK3CG (human) (UniProt P48736)
Test: Assessment of PIK3CG Kinase Activity

PIK3CG (human), sequence (P48736 whole entry, looked up): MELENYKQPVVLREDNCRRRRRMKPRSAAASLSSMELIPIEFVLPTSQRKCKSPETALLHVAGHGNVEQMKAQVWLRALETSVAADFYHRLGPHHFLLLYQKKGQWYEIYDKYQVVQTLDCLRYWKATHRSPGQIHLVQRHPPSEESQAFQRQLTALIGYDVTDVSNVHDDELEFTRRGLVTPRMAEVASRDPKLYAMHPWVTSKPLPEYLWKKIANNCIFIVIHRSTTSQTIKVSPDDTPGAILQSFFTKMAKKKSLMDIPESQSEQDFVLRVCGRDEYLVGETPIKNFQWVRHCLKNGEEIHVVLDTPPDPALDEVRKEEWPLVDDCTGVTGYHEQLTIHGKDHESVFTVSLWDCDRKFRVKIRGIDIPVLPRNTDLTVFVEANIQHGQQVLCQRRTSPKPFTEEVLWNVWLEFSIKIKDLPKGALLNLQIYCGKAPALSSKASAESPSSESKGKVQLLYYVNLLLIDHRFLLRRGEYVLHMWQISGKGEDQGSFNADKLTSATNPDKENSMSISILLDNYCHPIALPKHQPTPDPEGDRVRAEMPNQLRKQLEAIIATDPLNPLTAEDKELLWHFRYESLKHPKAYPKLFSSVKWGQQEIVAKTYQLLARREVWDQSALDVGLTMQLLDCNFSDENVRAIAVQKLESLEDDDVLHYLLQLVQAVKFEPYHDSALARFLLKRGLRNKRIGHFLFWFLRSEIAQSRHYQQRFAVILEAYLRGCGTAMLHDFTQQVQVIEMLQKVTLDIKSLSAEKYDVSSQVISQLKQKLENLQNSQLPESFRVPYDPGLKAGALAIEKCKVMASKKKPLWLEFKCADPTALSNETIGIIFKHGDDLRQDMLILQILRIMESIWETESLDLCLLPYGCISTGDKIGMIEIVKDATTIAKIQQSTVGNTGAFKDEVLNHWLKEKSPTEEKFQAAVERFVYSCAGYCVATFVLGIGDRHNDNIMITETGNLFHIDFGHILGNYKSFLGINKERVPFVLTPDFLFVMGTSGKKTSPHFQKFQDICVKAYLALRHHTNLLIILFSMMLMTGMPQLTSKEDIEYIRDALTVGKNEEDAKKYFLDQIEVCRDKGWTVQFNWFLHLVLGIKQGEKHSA

IC50, < 600 nM:
CC(=O)Nc1nc2c(s1)-c1nc(-c3cc(C#CCCN(C)C)ccc3Cl)ncc1CC2, CC(=O)Nc1nc2c(s1)-c1nc(-c3cc(C#CC4(O)CCN(C5CCCC5)CC4)ccc3Cl)ncc1CC2, CC(=O)Nc1nc2c(s1)-c1nc(-c3cc(C#CCNC(=O)CC(C)(C)C)ccc3Cl)ncc1CC2, CC(=O)Nc1nc2c(s1)-c1nc(-c3cc(C#CCCCN4CCCC4)ccc3Cl)ncc1CC2, CC(=O)Nc1nc2c(s1)-c1nc(-c3cc(C#CCNCC4CC4)ccc3Cl)ncc1CC2, CC(=O)Nc1nc2c(s1)-c1nc(-c3cc(C#CCN4CCN(C)CC4)ccc3Cl)ncc1CC2, CC(=O)Nc1nc2c(s1)-c1nc(-c3cc(C#CCCCNC(C)C)ccc3Cl)ncc1CC2, CC(=O)Nc1nc2c(s1)-c1nc(-c3cc(C#CC4CCN(C5CCCC5)CC4)ccc3Cl)ncc1CC2, CC(=O)Nc1nc2c(s1)-c1nc(-c3cc(C#Cc4ccccn4)ccc3Cl)ncc1CC2, CC(=O)Nc1nc2c(s1)-c1nc(-c3cc(C#CC4CCCCC4)ccc3Cl)ncc1CC2, CC(=O)Nc1nc2c(s1)-c1nc(-c3cc(C#CC4(O)CCN(C)CC4)ccc3Cl)ncc1CC2, CC(=O)Nc1nc2c(s1)-c1nc(-c3cc(C#CCCCN(C)C)ccc3Cl)ncc1CC2, CNC(=O)NCC#Cc1ccc(Cl)c(-c2ncc3c(n2)-c2sc(NC(C)=O)nc2CC3)c1, CC(=O)Nc1nc2c(s1)-c1nc(-c3cc(C#CC4CCN(CC5CCCC5)CC4)ccc3Cl)ncc1CC2, CNC(=O)N(C)CCC#Cc1ccc(Cl)c(-c2ncc3c(n2)-c2sc(NC(C)=O)nc2CC3)c1, CNC(=O)Nc1nc2c(s1)-c1nc(-c3cc(C#CC4CCN(C5CCCC5)CC4)ccc3Cl)ncc1CC2, CNC(=O)NC1(C#Cc2ccc(Cl)c(-c3ncc4c(n3)-c3sc(NC(C)=O)nc3CC4)c2)CCCCC1, CC(=O)Nc1nc2c(s1)-c1nc(-c3cc(C#CCCNC(C)C)ccc3Cl)ncc1CC2, CC(=O)Nc1nc2c(s1)-c1nc(-c3cc(C#CC4(N)CCCCC4)ccc3Cl)ncc1CC2, CC(=O)Nc1nc2c(s1)-c1nc(-c3cc(C#CC4CCN(C(C)=O)CC4)ccc3Cl)ncc1CC2, CC(=O)Nc1nc2c(s1)-c1nc(-c3cc(C#CCNC(=O)CC(C)C)ccc3Cl)ncc1CC2, CC(=O)Nc1nc2c(s1)-c1nc(-c3cc(C#CCN)ccc3Cl)ncc1CC2, CC(=O)Nc1nc2c(s1)-c1nc(-c3cc(C#CCNC(=O)CC4CCCC4)ccc3Cl)ncc1CC2, CC(=O)Nc1nc2c(s1)-c1nc(-c3cc(C#CCNS(=O)(=O)C4CC4)ccc3Cl)ncc1CC2, CC(=O)Nc1nc2c(s1)-c1nc(-c3cc(C#CC4CCN(S(C)(=O)=O)CC4)ccc3Cl)ncc1CC2, CC(=O)Nc1nc2c(s1)-c1nc(-c3cc(C#CCN(C)S(C)(=O)=O)ccc3Cl)ncc1CC2, CC(=O)Nc1nc2c(s1)-c1nc(-c3cc(C#CC4(O)CCN(C5CCCC5)CC4)ccc3F)ncc1CC2, CC(=O)Nc1nc2c(s1)-c1nc(-c3cc(C#CCNC(=O)C4CCCCC4)ccc3Cl)ncc1CC2, CC(=O)Nc1nc2c(s1)-c1nc(-c3cc(C#CCN(C)S(=O)(=O)CC(F)(F)F)ccc3Cl)ncc1CC2, CC(=O)Nc1nc2c(s1)-c1nc(-c3cc(C#CC4CCN(S(=O)(=O)N(C)C)CC4)ccc3Cl)ncc1CC2, CC(=O)Nc1nc2c(s1)-c1nc(-c3cc(C#CCNC(=O)NC(C)C)ccc3Cl)ncc1CC2, CC(=O)Nc1nc2c(s1)-c1nc(-c3cc(C#CC4CCN(C(=O)NC(C)(C)C)CC4)ccc3Cl)ncc1CC2, CC(=O)Nc1nc2c(s1)-c1nc(-c3cc(C#CCNCC(C)(C)C)ccc3Cl)ncc1CC2, CC(=O)Nc1nc2c(s1)-c1nc(-c3cc(C#CCN4CCNC(=O)C4)ccc3Cl)ncc1CC2, CNC(=O)Nc1nc2c(s1)-c1nc(-c3cc(C#CC4(OC)CCN(C)CC4)ccc3Cl)ncc1CC2, CC(=O)Nc1nc2c(s1)-c1nc(-c3cc(C#CCN(C)S(=O)(=O)N(C)C)ccc3Cl)ncc1CC2, CC(=O)Nc1nc2c(s1)-c1nc(-c3cc(C#CCNC(=O)CC4CC4)ccc3Cl)ncc1CC2, CC(=O)Nc1nc2c(s1)-c1nc(-c3cccc(C#CC4CCN(C5CCCC5)CC4)c3)ncc1CC2, CNC(=O)Nc1nc2c(s1)-c1nc(-c3cc(C#CC4(O)CCN(C5CCCC5)CC4)ccc3Cl)ncc1CC2, CC(=O)Nc1nc2c(s1)-c1nc(-c3cc(C#CCCCNC4CCN(C)CC4)ccc3Cl)ncc1CC2, CC(=O)Nc1nc2c(s1)-c1nc(-c3cc(C#CCC4CCCC4)ccc3Cl)ncc1CC2, CC(=O)Nc1nc2c(s1)-c1nc(-c3cc(C#CCCCN4CCOCC4)ccc3Cl)ncc1CC2, CC(=O)Nc1nc2c(s1)-c1nc(-c3cccc(C#CCNC(=O)CC(C)(C)C)c3)ncc1CC2, CC(=O)Nc1nc2c(s1)-c1nc(-c3cc(C#CCNS(=O)(=O)C(F)(F)F)ccc3Cl)ncc1CC2, CC(=O)Nc1nc2c(s1)-c1nc(-c3cc(C#Cc4ccccc4)ccc3Cl)ncc1CC2, CC(=O)Nc1nc2c(s1)-c1nc(-c3cc(C#CCNS(=O)(=O)Cc4ccccc4)ccc3Cl)ncc1CC2, CC(=O)Nc1nc2c(s1)-c1nc(-c3cc(C#CC4CCN(C(=O)N5CCOCC5)CC4)ccc3Cl)ncc1CC2, CC(=O)Nc1nc2c(s1)-c1nc(-c3cc(C#CCNC(=O)CCC4CCCC4)ccc3Cl)ncc1CC2, CC(=O)Nc1nc2c(s1)-c1nc(-c3cc(C#CCCN(C)C(C)C)ccc3Cl)ncc1CC2, COC1(C#Cc2ccc(Cl)c(-c3ncc4c(n3)-c3sc(NC(C)=O)nc3CC4)c2)CCCCC1, CC(=O)Nc1nc2c(s1)-c1nc(-c3cc(C#CC4(O)CCN(C(C)C)CC4)ccc3F)ncc1CC2, CCS(=O)(=O)N(C)CC#Cc1ccc(Cl)c(-c2ncc3c(n2)-c2sc(NC(C)=O)nc2CC3)c1, CC(=O)Nc1nc2c(s1)-c1nc(-c3cc(C#CC4CCNCC4)ccc3Cl)ncc1CC2, CC(=O)Nc1nc2c(s1)-c1nc(-c3cc(C#CCNCC4CCCC4)ccc3Cl)ncc1CC2, CNCC#Cc1cccc(-c2ncc3c(n2)-c2sc(NC(C)=O)nc2CC3)c1, CNC(=O)N1CCC(C#Cc2ccc(Cl)c(-c3ncc4c(n3)-c3sc(NC(C)=O)nc3CC4)c2)CC1, CC(=O)Nc1nc2c(s1)-c1nc(-c3cc(Cl)cc(C#CC4CCN(C5CCCC5)CC4)c3)ncc1CC2, CC(=O)Nc1nc2c(s1)-c1nc(-c3cc(C#CCN(C)S(=O)(=O)N4CCCC4)ccc3Cl)ncc1CC2, CC(=O)Nc1nc2c(s1)-c1nc(-c3cc(C#CCCN4CCC(N(C)C)CC4)ccc3Cl)ncc1CC2, CC(=O)Nc1nc2c(s1)-c1nc(-c3cc(C#CCCCNC4CCCC4)ccc3Cl)ncc1CC2, CC(=O)Nc1nc2c(s1)-c1nc(-c3cc(C#CCNC(=O)NC4CCCC4)ccc3Cl)ncc1CC2, CC(=O)Nc1nc2c(s1)-c1nc(-c3cc(C#CCCN4CCN(C)CC4)ccc3Cl)ncc1CC2, CC(=O)Nc1nc2c(s1)-c1nc(-c3cc(C#CCNS(=O)(=O)C(C)C)ccc3Cl)ncc1CC2, CC(=O)Nc1nc2c(s1)-c1nc(-c3cc(C#CC4(N5CCCC5)CCCCC4)ccc3Cl)ncc1CC2, CNCC#Cc1ccc(Cl)c(-c2ncc3c(n2)-c2sc(NC(C)=O)nc2CC3)c1, C=CC#Cc1ccc(Cl)c(-c2ncc3c(n2)-c2sc(NC(C)=O)nc2CC3)c1, CC(=O)Nc1nc2c(s1)-c1nc(-c3cc(C#CC4CCN(C(=O)C(C)C)CC4)ccc3Cl)ncc1CC2, CC(=O)Nc1nc2c(s1)-c1nc(-c3cc(C#CCCCN4CCN(C)CC4)ccc3Cl)ncc1CC2, CC(=O)Nc1nc2c(s1)-c1nc(-c3cc(C#CCN(C)C)ccc3Cl)ncc1CC2, CC(=O)Nc1nc2c(s1)-c1nc(-c3cc(C#CCNS(=O)(=O)CC(F)(F)F)ccc3Cl)ncc1CC2, CC(=O)Nc1nc2c(s1)-c1nc(-c3cc(C#CCCN(C)C(C)=O)ccc3Cl)ncc1CC2, CC(=O)Nc1nc2c(s1)-c1nc(-c3cc(C#CCN4CCC(C(N)=O)CC4)ccc3Cl)ncc1CC2, CC(=O)Nc1nc2c(s1)-c1nc(-c3cc(C#CCCCN4CCC(N(C)C)CC4)ccc3Cl)ncc1CC2, CC(=O)Nc1nc2c(s1)-c1nc(-c3cc(C#CCN(C)C(=O)C4CCCC4)ccc3Cl)ncc1CC2, CC(=O)NCC#Cc1cccc(-c2ncc3c(n2)-c2sc(NC(C)=O)nc2CC3)c1, CC(=O)Nc1nc2c(s1)-c1nc(-c3cc(C#CCN(C)S(=O)(=O)C4CC4)ccc3Cl)ncc1CC2, CC(=O)Nc1nc2c(s1)-c1nc(-c3cc(C#CCNC(=O)C4CCCC4)ccc3Cl)ncc1CC2, CC(=O)Nc1nc2c(s1)-c1nc(-c3cccc(C#CC4(O)CCN(C5CCCC5)CC4)c3)ncc1CC2, CCNC(=O)NCC#Cc1ccc(Cl)c(-c2ncc3c(n2)-c2sc(NC(C)=O)nc2CC3)c1
